Results reported in patent US20180272034A1, “USE OF CSA COMPOUNDS TO PREVENT MICROBIAL BUILD-UP OR FOULING OF MEDICAL IMPLANTS” (BRIGHAM YOUNG UNIVERSITY, priority 2017, published 2018).

Columns and labels:
[1] = Pre-term lambs intubated with coated endotracheal tubes, tracheal mucosal integrity; assay type: in vivo
From the text: Pre-term lambs were intubated using endotracheal tubes (ETTs) including a coating having CSA-131. Tracheal mucosal integrity of the lambs was compared to the tracheal mucosal integrity of a control group (intubated with uncoated ETTs). […] FIG. 2 illustrates the histological appearance of tracheas of the premature lambs that were intubated for three days. […] An area of denuded epithelium (arrowhead), and accumulation of white blood cells (arrow) are highlighted.

[2] = tested on: Haemophilus spp.; experiment: Broth microdilution MIC, HABP/VABP clinical isolates; assay type: cell-based
Method: (§1) CSA-131 was tested in vitro against a set of clinical isolates representing bacterial species commonly associated with hospital-acquired bacterial pneumonia (HABP) or ventilator-associated bacterial pneumonia (VABP). Antimicrobial susceptibility testing for 74 clinical isolates was performed. Broth microdilution using frozen-form MIC panels consisted of three media types: cation-adjusted Mueller-Hinton broth (CA-HMB), CA-HMB supplemented with 2.5-5% lysed horse blood for S. pneumoniae and Haemophilus test media (HTM) for Haemophilus spp.

[3] = tested on: Streptococcus Pneumoniae; experiment: as above; assay type: cell-based; settings: Streptococcus Pneumoniae (10)
Method: as §1

[4] = tested on: Enterobacteriaceae; experiment: as above; assay type: cell-based; settings: Enterobacteriaceae (22)
Method: as §1

[5] = tested on: All (74) clinical isolates; experiment: as above; assay type: cell-based
Method: as §1

[6] = tested on: Staphylococcus aureus; experiment: as above; assay type: cell-based; settings: Staphylococcus aureus (10)
Method: as §1

[7] = tested on: Pseudomonas aeruginosa; experiment: Log10 reduction, coated PVC endotracheal tube segments and media; assay type: cell-based; settings: CSA-131 polymer coating about 39.4 μg/cm^2 vs uncoated, 24 hours
Method: Segments of polyvinyl chloride (PVC) endotracheal tubes measuring 3 cm in length were placed in wells of a 6 well plate. 7 ml of inoculum were placed in each well. Testing was repeated in triplicate for each test article. The samples were placed on a rotary shaker (110 revolutions per minute) and incubated at 37±2° C. for 24 hours. At the end of 24 hours the bacteria in the inoculum were characterized via serial dilution, plating, and counting. The endotracheal tube segment was also removed and neutralized. After neutralization, the adherent biofilm biomass was removed and characterized via serial dilution, plating, and counting.
As the number of viable organisms recovered from the treated catheters is expected to be low, a membrane filtration method provides an appropriate analysis for counting recovered organisms. The remaining recovery solution was filtered through a 0.45 μm filter membrane. Filters were placed on TSA/SDA/NA/TSBA plates and incubated at 37±2° C. and counted after sufficient incubation.
The log reduction is calculated by determining the Log10 difference between uncoated devices and associated media and coated devices (using a polymer coating including CSA-131 at about 39.4 μg/cm^2) and associated media. The log reduction is calculated as follows:
Log reduction(Media)=Control Log10(CFU/ml)−Test Log10(CFU/ml)
Log10(CFU/ml)=Log10(CFU/ml+1)
Log reduction(Device)=Control Log10(CFU/device)−Test Log10(CFU/device)
Log10(CFU/device)=Log10(CFU/device+1)

CCCCCCCCCCCCNCCC[C@@H](C)[C@H]1CC[C@H]2[C@@H]3[C@H](OCCCN)C[C@@H]4C[C@H](OCCCN)CC[C@]4(C)[C@H]3C[C@H](OCCCN)[C@]12C.Cl.Cl.Cl.Cl [CSA-131]
tracheal mucosal integrity vs control group (uncoated ETTs) ([1]; pre-term lambs intubated with ETTs coated with CSA-131 coating): markedly improved mucosal integrity | histological appearance of trachea (FIG. 2, image b) ([1]; premature lambs intubated for three days, CSA-131 coated ETT): the epithelium is healthy and intact, and the subjacent connective tissue region is not inflamed | MIC50 ([2]; Haemophilus spp. (10)): 8 µg/mL | MIC90 ([2]; Haemophilus spp. (10)): 8 µg/mL | No. of isolates at MIC 4 μg/ml ([2]; Haemophilus spp. (10)): 0 (0%) | No. of isolates at MIC 8 μg/ml ([2]; Haemophilus spp. (10)): 10 | cumulative % inhibited at 2 μg/ml ([2]; Haemophilus spp. (10)): 0 (0%) | cumulative % inhibited at 4 μg/ml ([2]; Haemophilus spp. (10)): 0 (0%) | cumulative % inhibited at 8 μg/ml ([2]; Haemophilus spp. (10)): 100% | No. of isolates at MIC 2 μg/ml ([2]; Haemophilus spp. (10): 8 H. influenza, 2 H. parainfluenzae): 0 (0%) | MIC50 [3]: 4 µg/mL | MIC90 [3]: 4 µg/mL | No. of isolates at MIC 2 μg/ml [3]: 0 (0%) | No. of isolates at MIC 4 μg/ml [3]: 10 | No. of isolates at MIC 8 μg/ml [3]: 0 | cumulative % inhibited at 2 μg/ml [3]: 0 (0%) | cumulative % inhibited at 4 μg/ml [3]: 100% | cumulative % inhibited at 8 μg/ml [3]: 100% | MIC50 [4]: 4 µg/mL | MIC90 [4]: 4 µg/mL | No. of isolates at MIC 2 μg/ml [4]: 4 | No. of isolates at MIC 4 μg/ml [4]: 18 | No. of isolates at MIC 8 μg/ml [4]: 0 | cumulative % inhibited at 2 μg/ml [4]: 18.2% | cumulative % inhibited at 4 μg/ml [4]: 100% | cumulative % inhibited at 8 μg/ml [4]: 100% | MIC50 [5]: 4 µg/mL | MIC90 [5]: 8 µg/mL | No. of isolates at MIC 2 μg/ml [5]: 23 | No. of isolates at MIC 4 μg/ml [5]: 40 | No. of isolates at MIC 8 μg/ml [5]: 11 | cumulative % inhibited at 2 μg/ml [5]: 31.1% | cumulative % inhibited at 4 μg/ml [5]: 85.1% | cumulative % inhibited at 8 μg/ml [5]: 100% | MIC50 [6]: 2 µg/mL | MIC90 [6]: 2 µg/mL | No. of isolates at MIC 2 μg/ml [6]: 10 | No. of isolates at MIC 4 μg/ml [6]: 0 | No. of isolates at MIC 8 μg/ml [6]: 0 | cumulative % inhibited at 2 μg/ml [6]: 100% | cumulative % inhibited at 4 μg/ml [6]: 100% | cumulative % inhibited at 8 μg/ml [6]: 100% | Log10 Reduction Device ([7]; ATCC 10752 (clinical)): 7.32 | Log10 Reduction Media ([7]; ATCC 10752 (clinical)): 9.86 | Log10 Reduction Total ([7]; ATCC 10752 (clinical)): 9.58 | Log10 Reduction Device ([7]; ATCC 27853): 7.58 | Log10 Reduction Media ([7]; ATCC 27853): 9.15 | Log10 Reduction Total ([7]; ATCC 27853): 8.62 | Log10 Reduction Device ([7]; PA14 (clinical)): 5.81 | Log10 Reduction Media ([7]; PA14 (clinical)): 7.24 | Log10 Reduction Total ([7]; PA14 (clinical)): 7.00
